The values below come from patent US20180264080A1, “TOPICAL APPLICATIONS OF Kv1.3 CHANNEL BLOCKING PEPTIDES TO TREAT SKIN INFLAMMATION” (KINETA ONE, LLC, priority 2015, published 2018).

The nature of the series: Tissue penetration of topically applied peptide by immunohistochemistry (anti-ShK mAb P3B3) in rat pinna. Type of series: in vivo. The note with it: 10 doses, rat pinna sections 48 hours post-challenge (DTH study). From the text: This example describes the method of detection of toxin-based therapeutic peptides of the disclosure, such as ShK-186 (SEQ ID NO:217) or ShK-198 (SEQ ID NO:210) penetration after topical administration.
Materials: All Bond reagents such Bond HIER 1 (Citrate), Bond HIER 2 (EDTA), Bond Primary antibody diluent, Bond dewax solution, Bond Wash solution, Bond Polymer Refine (DAB) detection rack including peroxide block, polymer/hematoxylin, Bond Alcohol and the Leica Bond Automated Immunostainer were purchased from Leica-microsystems.
ShK specific antibody: Hybridoma fusions were performed using the isolated splenocytes from ShK-186 immunized mice and clones producing specific monoclonal antibodies against ShK-186 and ShK-198 were isolated. These cultures were subjected to a second cloning process using the limited dilution method and selected for stable expression of the specific mAb. Stable clones were expanded, tested for antibody specificity to ShK-186 (and ShK parent) by ELISA, and their isotypes were identified using the Roche Isostrips and confirmed by ELISA. For ELISA testing, culture supernatants were diluted from 1:4-1:256 and the titer was determined to be the last dilution 2 standard deviations above background. Clone P3B3-G11-C12 is purified from hybridoma extinction cultures and concentrated to 1 mg/ml. […]

For “(L-PhosphoTyr)-AEEAc-RSCIDTIPKSRCTAFQCKHSMKYRLSFCRKTCGTC-amide [ShK-186]”, under “1% solution of ShK-186, topical”, the “Tissue penetration of the peptide into rat pinna (dark staining with ShK specific monoclonal antibody P3B3)” value is “perfuse and extensive penetration”. “(L-Tyr)-AEEAc-RSCIDTIPKSRCTAFQCKHSMKYRLSFCRKTCGTC-amide [ShK-198]”: for the setting “5% solution of ShK-198, topical”, the “Tissue penetration of the peptide into rat pinna (dark staining with ShK specific monoclonal antibody P3B3)” value was “perfuse and extensive penetration”.
